The values below come from patent US20080096811A1, “[…] VPAC2 RECEPTOR PEPTIDE AGONISTS” (Eli Lilly and Company, published 2008).

*1 amine or outer side, *2 acyl side, *3 side chain or, on linkers, in order; H or OH if unused. Where a SMILES comes first, the peptide text is derived from it. Where no end group is shown, it is not given here. Side-chain parts run from the residue outwards. The star is where a group is joined. γGlu = O=C(O)[C@H](CCC(=O)[*:2])N[*:1]; Palmitoyl = CCCCCCCCCCCCCCCC(=O)*; Hexanoyl = CCCCCC(=O)*; Propionyl = CCC(=O)* Some results are limits rather than exact numbers.

The target in assay [1] is T1, human VPAC2 (Homo sapiens, UniProt P41587).
T1 construct: expressed in transfected cells
T1 sequence (P41587 24-438): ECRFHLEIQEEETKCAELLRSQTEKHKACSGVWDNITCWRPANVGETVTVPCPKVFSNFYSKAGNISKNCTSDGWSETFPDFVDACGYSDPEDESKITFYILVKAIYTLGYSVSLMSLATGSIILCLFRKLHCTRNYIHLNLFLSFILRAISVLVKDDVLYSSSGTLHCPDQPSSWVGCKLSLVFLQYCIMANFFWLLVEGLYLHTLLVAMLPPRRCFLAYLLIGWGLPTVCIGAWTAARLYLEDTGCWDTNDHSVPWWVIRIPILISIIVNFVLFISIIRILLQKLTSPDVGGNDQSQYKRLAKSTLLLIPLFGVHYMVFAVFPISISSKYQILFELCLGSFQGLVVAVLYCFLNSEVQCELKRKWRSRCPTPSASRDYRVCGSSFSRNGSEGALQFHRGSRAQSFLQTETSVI
The assay can be described thus: Filter binding assay, human VPAC2 membranes, 125I-labeled VIP tracer. The protocol:
(§1) For this assay, the solutions and equipment include:
(§2) Presoak solution: 0.5% Polyethyleneamine in Aqua dest.
(§3) Buffer for flushing filter plates: 25 mM […] pH 7.4
(§4) Blocking buffer: 25 mM HEPES pH 7.4; 0.2% protease free BSA
(§5) Assay buffer: 25 mM HEPES pH 7.4; 0.5% protease free BSA
(§6) Dilution and assay plate: PS-Microplate, U form
(§7) Filtration Plate Multiscreen FB Opaque Plate; […] Type B Glasfiber filter
(§8) In order to prepare the filter plates, aspirate the presoak solution by vacuum filtration. Flush the plates twice with 200 μL flush buffer. Add 200 μL blocking buffer to the filter plate. The filter plate is then incubated […] for 1 hour at room temperature.
(§9) Fill the assay plate with 25 μL assay buffer, 25 μL membranes (2.5 μg) suspended in assay buffer, 25 μL compound (agonist) in assay buffer, and 25 μL tracer (about 40000 cpm) in assay buffer. Incubate the filled plate for 1 hour with shaking.
(§10) Conduct the transfer from assay plate to filter plate. Aspirate the blocking buffer by vacuum filtration and wash two times with flush buffer. Transfer 90 μL from the assay plate to the filter plate. Aspirate the 90 μL transferred from assay plate and wash three times with 200 μL flush buffer. Remove the plastic support. Dry for 1 hour at 60° C. Add 30 μL Microscint. Perform the count.

The next assay concerns the target human PAC1 (Homo sapiens, UniProt P41586). Kind of assay: biochemical. On the procedure: as §1, §2, §3, §4, §5, §6, §7, §8, §9, §10
A further assay has as its target T2, human VPAC1 (Homo sapiens, UniProt P32241).
T2 sequence (P32241 31-457): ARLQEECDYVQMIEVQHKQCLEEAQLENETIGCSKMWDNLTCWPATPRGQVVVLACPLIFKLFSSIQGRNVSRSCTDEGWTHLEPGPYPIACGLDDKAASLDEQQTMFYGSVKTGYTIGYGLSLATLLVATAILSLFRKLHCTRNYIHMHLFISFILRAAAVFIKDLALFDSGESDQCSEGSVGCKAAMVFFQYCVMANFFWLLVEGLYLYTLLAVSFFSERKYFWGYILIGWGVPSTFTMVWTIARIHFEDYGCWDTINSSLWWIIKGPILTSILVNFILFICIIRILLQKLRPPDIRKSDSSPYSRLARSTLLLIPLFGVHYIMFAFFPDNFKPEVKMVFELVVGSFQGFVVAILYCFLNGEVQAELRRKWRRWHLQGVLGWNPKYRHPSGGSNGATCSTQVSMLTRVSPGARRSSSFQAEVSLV
Kind of assay: Filter binding assay, human VPAC1 membranes, 125I-labeled VIP tracer. Set-up: expressed in transfected cells. The protocol: as §1, §2, §3, §4, §5, §6, §7, §8, §9, §10

Assay [2] deals with T1, human VPAC2. The assay can be described thus: Alpha screen cAMP in vitro potency, human VPAC2. Type of assay: cell-based. The protocol: Alpha screen: Cells are washed in the culture flask once with PBS. Then, the cells are rinsed with enzyme free dissociation buffer. The dissociated cells are removed. The cells are then spun down and washed in stimulation buffer. For each data point, 50,000 cells suspended in stimulation buffer are used. To this buffer, Alpha screen acceptor beads are added along with the stimuli. This mixture is incubated for 60 minutes. Lysis buffer and Alpha screen donor beads are added and are incubated for 60 to 120 minutes. The Alpha screen signal (indicative of intracellular cAMP levels) is read in a suitable instrument (e.g. AlphaQuest from Perlin-Elmer). Steps including Alpha screen donor and acceptor beads are performed in reduced light.

Assay [3] deals with T3, human VPAC2 receptor (human) (UniProt P41587).
T3 sequence: T1 sequence (P41587 24-438)

human PAC1, sequence (P41586 21-468): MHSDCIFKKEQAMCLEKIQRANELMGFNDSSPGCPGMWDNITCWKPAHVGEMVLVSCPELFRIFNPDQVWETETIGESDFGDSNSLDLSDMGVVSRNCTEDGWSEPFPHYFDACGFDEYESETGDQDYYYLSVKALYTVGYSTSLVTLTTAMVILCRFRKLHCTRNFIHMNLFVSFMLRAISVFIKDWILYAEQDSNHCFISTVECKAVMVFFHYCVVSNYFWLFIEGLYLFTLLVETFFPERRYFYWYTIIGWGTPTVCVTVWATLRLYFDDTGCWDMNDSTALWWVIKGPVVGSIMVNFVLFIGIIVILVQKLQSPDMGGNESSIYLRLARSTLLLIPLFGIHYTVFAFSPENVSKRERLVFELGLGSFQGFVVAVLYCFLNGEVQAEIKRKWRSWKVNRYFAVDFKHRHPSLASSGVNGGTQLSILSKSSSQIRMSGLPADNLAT

`CCCCCC(=O)N[C@@H](Cc1c[nH]cn1)C(=O)N[C@@H](CO)C(=O)N[C@@H](CC(=O)O)C(=O)N[C@@H](C)C(=O)N[C@H](C(=O)N[C@@H](Cc1ccccc1)C(=O)N[C@H](C(=O)N[C@@H](CC(=O)O)C(=O)N[C@@H](CC(N)=O)C(=O)N[C@@H](Cc1ccc(O)cc1)C(=O)N[C@H](C(=O)N[C@@H](CCCNC(=N)N)C(=O)N[C@@H](CC(C)C)C(=O)N[C@@H](CCCNC(=N)N)C(=O)N[C@@H](CCCCN)C(=O)N[C@@H](CCC(N)=O)C(=O)N[C@H](C(=O)N[C@@H](C)C(=O)N[C@@H](C)C(=O)N[C@@H](CCCCN)C(=O)N[C@@H](CCCCN)C(=O)N[C@@H](Cc1ccc(O)cc1)C(=O)N[C@@H](CC(C)C)C(=O)N[C@@H](CCC(N)=O)C(=O)N[C@@H](CO)C(=O)N[C@H](C(=O)N[C@@H](CCCCN)C(=O)N[C@@H](CC(N)=O)C(=O)N[C@@H](CO)C(=O)N[C@@H](CCCNC(=N)N)C(=O)N[C@H](C(=O)N[C@@H](CO)C(=O)N1CCC[C@H]1C(=O)N1CCC[C@H]1C(=O)N1CCC[C@H]1C(=O)N[C@@H](CCCCNC(=O)[C@@H](N)Cc1c[nH]c2ccccc12)C(N)=O)[C@@H](C)O)[C@@H](C)CC)C(C)C)[C@@H](C)O)[C@@H](C)O)C(C)C` [Agonist P118] (Hexanoyl-HSDAVFTDNYTRLRKQVAAKKYLQSIKNSRTSPPPK(Trp)-NH2): the IC50 (commonly the concentration that inhibits the measured activity by half) came to 0.25 nM on human VPAC2 [1], 125 nM against human PAC1 and 76.3 nM on human VPAC1.
As to `CC[C@H](C)[C@H](NC(=O)[C@H](CO)NC(=O)[C@H](CCC(N)=O)NC(=O)[C@H](CC(C)C)NC(=O)[C@H](Cc1ccc(O)cc1)NC(=O)[C@H](CCCCN)NC(=O)[C@H](CCCCN)NC(=O)[C@H](C)NC(=O)[C@H](C)NC(=O)[C@@H](NC(=O)[C@H](CCC(N)=O)NC(=O)[C@H](CCCCN)NC(=O)[C@H](CCCNC(=N)N)NC(=O)[C@H](CC(C)C)NC(=O)[C@H](CCCNC(=N)N)NC(=O)[C@@H](NC(=O)[C@H](Cc1ccc(O)cc1)NC(=O)[C@H](CC(N)=O)NC(=O)[C@H](CC(=O)O)NC(=O)[C@@H](NC(=O)[C@H](Cc1ccccc1)NC(=O)[C@@H](NC(=O)[C@H](C)NC(=O)[C@H](CC(=O)O)NC(=O)[C@H](CO)NC(=O)[C@@H](N)Cc1c[nH]cn1)C(C)C)[C@@H](C)O)[C@@H](C)O)C(C)C)C(=O)N[C@@H](CCCCN)C(=O)N[C@@H](CC(N)=O)C(=O)N[C@@H](CO)C(=O)N[C@@H](CCCNC(=N)N)C(=O)N[C@H](C(=O)N[C@@H](CO)C(=O)N1CCC[C@H]1C(=O)N1CCC[C@H]1C(=O)N1CCC[C@H]1C(=O)N[C@@H](CCCCNC(=O)[C@@H](N)Cc1c[nH]c2ccccc12)C(N)=O)[C@@H](C)O` [Agonist P128] (H-HSDAVFTDNYTRLRKQVAAKKYLQSIKNSRTSPPPK(Trp)-NH2), the response at human VPAC2 [2] was half-maximal at 1.78 nM (EC50). In addition, the IC50 on human VPAC2 [1] was 2.25 nM; against human PAC1, 104 nM; on human VPAC1 it was 110 nM.
As to `CCCCCC(=O)N[C@@H](Cc1c[nH]cn1)C(=O)N[C@@H](CO)C(=O)N[C@@H](CC(=O)O)C(=O)N[C@@H](C)C(=O)N[C@H](C(=O)N[C@@H](Cc1ccccc1)C(=O)N[C@H](C(=O)N[C@@H](CC(=O)O)C(=O)N[C@@H](CC(N)=O)C(=O)N[C@@H](Cc1ccc(O)cc1)C(=O)N[C@H](C(=O)N[C@@H](CCCNC(=N)N)C(=O)N[C@@H](CC(C)C)C(=O)N[C@@H](CCCNC(=N)N)C(=O)N[C@@H](CCCCN)C(=O)N[C@@H](C)C(=O)N[C@@H](C)C(=O)N[C@@H](C)C(=O)N[C@@H](C)C(=O)N[C@@H](CCCCN)C(=O)N[C@@H](CCCCN)C(=O)N[C@@H](Cc1ccc(O)cc1)C(=O)N[C@@H](CC(C)C)C(=O)N[C@@H](CCC(N)=O)C(=O)N[C@@H](CO)C(=O)N[C@H](C(=O)N[C@@H](CCCCN)C(=O)N[C@@H](CC(N)=O)C(=O)N[C@@H](CO)C(=O)N[C@@H](CCCNC(=N)N)C(=O)N[C@H](C(=O)N[C@@H](CO)C(=O)N1CCC[C@H]1C(=O)N1CCC[C@H]1C(=O)N1CCC[C@H]1C(N)=O)[C@@H](C)O)[C@@H](C)CC)[C@@H](C)O)[C@@H](C)O)C(C)C` [Agonist P178] (Hexanoyl-HSDAVFTDNYTRLRKAAAAKKYLQSIKNSRTSPPP-NH2), a half-maximal response at human VPAC2 [2] (EC50) required 0.12 nM. In addition, the results for the IC50 on human VPAC2 [1] and at human VPAC1 were 0.16 nM and 35.7 nM, respectively.
In turn, `CC[C@H](C)[C@H](NC(=O)[C@H](CO)NC(=O)[C@H](CC(N)=O)NC(=O)[C@H](CC(C)C)NC(=O)[C@H](Cc1ccc(O)cc1)NC(=O)[C@H](CCCCN)NC(=O)[C@H](CCCCN)NC(=O)[C@@H](NC(=O)[C@H](C)NC(=O)[C@H](CCSC)NC(=O)[C@H](CCC(N)=O)NC(=O)[C@H](CCCCN)NC(=O)[C@H](CCCN=C(N)N)NC(=O)[C@H](CC(C)C)NC(=O)[C@H](CCCN=C(N)N)NC(=O)[C@@H](NC(=O)[C@H](Cc1ccc(O)cc1)NC(=O)[C@H](CC(N)=O)NC(=O)[C@H](CC(=O)O)NC(=O)[C@@H](NC(=O)[C@H](Cc1ccccc1)NC(=O)[C@@H](NC(=O)[C@H](C)NC(=O)[C@H](CC(=O)O)NC(=O)[C@H](CO)NC(=O)[C@@H](N)Cc1cnc[nH]1)C(C)C)[C@@H](C)O)[C@@H](C)O)C(C)C)C(=O)N[C@@H](CC(C)C)C(=O)N[C@@H](CC(N)=O)C(=O)O` [VIP, reference compound] displayed an IC50 at human PAC1 greater than 25000 nM.

B1: P95 (peptide)
peptide: Propionyl-HSDAVFTDNYTRLRKQVAAKKYLQSIKNSRTSPPPK([γGlu-Palmitoyl])-NH2
SMILES: CCCCCCCCCCCCCCCC(=O)N[C@@H](CCC(=O)NCCCC[C@H](NC(=O)[C@@H]1CCCN1C(=O)[C@@H]1CCCN1C(=O)[C@@H]1CCCN1C(=O)[C@H](CO)NC(=O)[C@@H](NC(=O)[C@H](CCCNC(=N)N)NC(=O)[C@H](CO)NC(=O)[C@H](CC(N)=O)NC(=O)[C@H](CCCCN)NC(=O)[C@@H](NC(=O)[C@H](CO)NC(=O)[C@H](CCC(N)=O)NC(=O)[C@H](CC(C)C)NC(=O)[C@H](Cc1ccc(O)cc1)NC(=O)[C@H](CCCCN)NC(=O)[C@H](CCCCN)NC(=O)[C@H](C)NC(=O)[C@H](C)NC(=O)[C@@H](NC(=O)[C@H](CCC(N)=O)NC(=O)[C@H](CCCCN)NC(=O)[C@H](CCCNC(=N)N)NC(=O)[C@H](CC(C)C)NC(=O)[C@H](CCCNC(=N)N)NC(=O)[C@@H](NC(=O)[C@H](Cc1ccc(O)cc1)NC(=O)[C@H](CC(N)=O)NC(=O)[C@H](CC(=O)O)NC(=O)[C@@H](NC(=O)[C@H](Cc1ccccc1)NC(=O)[C@@H](NC(=O)[C@H](C)NC(=O)[C@H](CC(=O)O)NC(=O)[C@H](CO)NC(=O)[C@H](Cc1c[nH]cn1)NC(=O)CC)C(C)C)[C@@H](C)O)[C@@H](C)O)C(C)C)[C@@H](C)CC)[C@@H](C)O)C(N)=O)C(=O)O
For B1, in assay [3], the EC50 (nM) for cAMP generation, Alpha Screen turned out to be 0.24 nM and the EC50 (nM) for cAMP generation, DiscoveRx worked out at 0.45 nM.
On to HSDAVFTDNYTRLRKQAAAKKYLQSIKNSRTSPPP-NH2 [P96], for which the EC50 (nM) for cAMP generation, Alpha Screen in assay [3] is 0.9 nM.
